Source: US20180064712A1, “METHODS OF REDUCING IMMUNE CELL ACTIVATION AND USES THEREOF” (Washington University, priority 2016, published 2018)

Key:
mitochondrial fission = details: as disclosed in Cassidy-Stone et al. Developmental Cell 2008; cited from earlier work
IL-15 TM cells [1] = assay: ECAR after αCD3/28 bead stimulation with or without Mdivi-1; assay type: cell-based, mice; details: αCD3/28-conjugated beads, 10 μM Mdivi-1 vs control
Description: (§1) FIG. 6A, FIG. 6B, FIG. 6C, FIG. 6D, FIG. 6E, FIG. 6F, FIG. 6G, FIG. 6H, FIG. 6I, FIG. 6J, FIG. 6K, FIG. 6L, FIG. 6M, and FIG. 6N depict graphs and images showing that mitochondrial cristae remodeling signals metabolic pathway engagement. (FIG. 6A) Basal ECAR of OT-I Opa1^+/+ and Opa1^−/− IL-2 TE cells (left) and day 7 TE cells isolated ex vivo after adoptive transfer from LmOVA infection (right). Data combined from 2-3 experiments (*p=0.0412, ***p<0.0001). (FIG. 6B) OCR at baseline and after indicated drugs, representative of 2 experiments shown as mean±SEM, and (FIG. 6C) D-Glucose-^13C1,2 trace analysis of OT-I Opa1^+/+ and Opa1^−/− IL-2 TE cells. Each lane represents separate mice with a technical replicate. […] (FIG. 6K) IL-15 TM cell, (FIG. 6L, FIG. 6M) bone marrow-derived dendritic cell (BM-DCs) and macrophage (BM-Macs) % ECAR measured at baseline and after media, αCD3/CD28-conjugated bead, LPS, or LPS+IFN-γ injection as indicated. […]
(§2) To more directly test this idea, we assessed ECAR of IL-15 TM cells that were stimulated with αCD3/28-conjugated beads in the presence or absence of Mdivi-1. […] We stimulated bone marrow derived dendritic cells (BM-DCs) and macrophages (BM-Macs) with lipolysaccharide (LPS) with or without interferon (IFN)-γ in the presence or absence of Mdivi-1 and measured ECAR. […]

IL-15 TM cells [2] = assay: EM analysis of mitochondrial cristae after stimulation with or without Mdivi-1; assay type: cell-based, mice; details: IL-15 TM cells activated with αCD3/CD28-conjugated beads or PMA and ionomycin, presence or absence of Mdivi-1
Description: as §1, with “replicate. (FIG. 6D) EM analysis of mitochondrial cristae from TE and TM cells isolated after LmOVA infection and (FIG. 6E) in vitro cultured IL-2 TE and TM cells. Data representative of 2 experiments, scale bar=0.25 μm.” for “replicate.”
To more thoroughly examine this idea, we assessed cristae morphology in TE and TM cells by EM following TCR stimulation. […]

[3] = tested on: Bone marrow derived macrophages (BM-Macs); assay: ECAR after LPS with or without IFN-γ stimulation with or without Mdivi-1, macrophages; assay type: cell-based, mice; details: BM-Macs following stimulation with LPS with or without IFN-γ, 10 μM Mdivi-1
Description: as §1, §2

BM-Macs = assay: intracellular Nos2 protein by flow cytometry; assay type: cell-based, mice; details: stimulated BM-Macs, Mdivi-1 treated
[4] = tested on: bone marrow derived dendritic cells (BM-DCs); assay: ECAR after LPS stimulation with or without Mdivi-1, dendritic cells; assay type: cell-based, mice; details: BM-DCs following stimulation with LPS, 10 μM Mdivi-1
Description: as §1, §2

Structure (SMILES): COc1cc(-n2c(=S)[nH]c3ccccc3c2=O)c(Cl)cc1Cl [Mdivi-1]
- efficacy relative to Mdivi-1 as mitochondrial fission inhibitor (mitochondrial fission): full efficacy
- aerobic glycolysis (ECAR) (IL-15 TM cells [1]): did not robustly increase aerobic glycolysis
- cristae morphology by EM (IL-15 TM cells [2]): intermembrane space widening over time in control cells in comparison to drug treated cells
- aerobic glycolysis (ECAR) [3]: curtailed
- nitric oxide synthase 2 (Nos2) protein expression (BM-Macs): significantly decreased
- aerobic glycolysis (ECAR) [4]: curtailed
